Results on 25 compounds are retold here after PMC10233829 (ACS Omega, 2023).

Values after ≈ are worked out from the molar mass of the structure shown.

The test system of this test is M. tuberculosis Spec 210. In words: microbe, parasite or virus in culture. Format: cell-based, Mycobacterium tuberculosis. Particulars: for MIC M. tuberculosis Spec 210 (multidrug-resistant): MABA; for MIC: Mycobacterium tuberculosis, SPEC210, read-out: MIC M. tuberculosis Spec 210 (multidrug-resistant), MABA.

As for `C=CC(=O)N1CCN(c2cc3c(cc2F)c(=O)c(C(=O)O)cn3C2CC2)CC1` [Compound 1, 7-(4-Acryloyl-piperazin-1-yl)-1-cyclopropyl-6-fluoro-4-oxo-1,4-dihydro-quinoline-3-carboxylic Acid], the “MIC M. tuberculosis Spec 210 (multidrug-resistant)” value came out at 2 µg/mL (≈ 5.19 µM) and the MIC lay within 1 to 2 µg/mL (≈ 2.59 to 5.19 µM).
Consider `O=C(O)c1cn(C2CC2)c2cc(N3CCN(C(=O)C4CC4)CC3)c(F)cc2c1=O` [Compound 2, 7-(4-Cyclopropanecarbonyl-piperazin-1-yl)-1-cyclopropyl-6-fluoro-4-oxo-1,4-dihydro-quinoline-3-carboxylic Acid], for which the MIC was at most 0.25 µg/mL.
On to `O=C(O)c1cn(C2CC2)c2cc(N3CCN(C(=O)CCl)CC3)c(F)cc2c1=O` [Compound 3, 7-[4-(2-Chloroacetyl)-piperazin-1-yl]-1-cyclopropyl-6-fluoro-4-oxo-1,4-dihydro-quinoline-3-carboxylic Acid], for which the “MIC M. tuberculosis Spec 210 (multidrug-resistant)” value was 2 µg/mL (≈ 4.9 µM) and the MIC was 1 to 2 µg/mL (≈ 2.45 to 4.9 µM).
As to `O=C(O)c1cn(C2CC2)c2cc(N3CCN(C(=O)CCCl)CC3)c(F)cc2c1=O` [Compound 4, 7-[4-(3-Chloropropionyl)-piperazin-1-yl]-1-cyclopropyl-6-fluoro-4-oxo-1,4-dihydro-quinoline-3-carboxylic Acid], the “MIC M. tuberculosis Spec 210 (multidrug-resistant)” value stood at 2 µg/mL (≈ 4.74 µM) and the MIC was 1 to 2 µg/mL (≈ 2.37 to 4.74 µM).
As for `O=C(O)c1cn(C2CC2)c2cc(N3CCN(C(=O)CCCCl)CC3)c(F)cc2c1=O` [Compound 5, 7-[4-(4-Chlorobutyryl)-piperazin-1-yl]-1-cyclopropyl-6-fluoro-4-oxo-1,4-dihydro-quinoline-3-carboxylic Acid], the MIC was at most 0.25 µg/mL.
With `O=C(O)c1cn(C2CC2)c2cc(N3CCN(C(=O)CCCCCl)CC3)c(F)cc2c1=O` [Compound 6, 7-[4-(5-Chloropentanoyl)-piperazin-1-yl]-1-cyclopropyl-6-fluoro-4-oxo-1,4-dihydro-quinoline-3-carboxylic Acid], the MIC is at most 0.25 µg/mL.
Take `O=C(O)c1cn(C2CC2)c2cc(N3CCN(C(=O)CCCCCCl)CC3)c(F)cc2c1=O` [Compound 7, 7-[4-(6-Chlorohexanoyl)-piperazin-1-yl]-1-cyclopropyl-6-fluoro-4-oxo-1,4-dihydro-quinoline-3-carboxylic Acid]: the MIC was at most 0.25 µg/mL.
For `O=C(O)c1cn(C2CC2)c2cc(N3CCN(C(=O)CBr)CC3)c(F)cc2c1=O` [Compound 8, 7-[4-(2-Bromoacetyl)-piperazin-1-yl]-1-cyclopropyl-6-fluoro-4-oxo-1,4-dihydro-quinoline-3-carboxylic Acid], the MIC was found to be 8 µg/mL (≈ 17.7 µM).
For the compound `O=C(O)c1cn(C2CC2)c2cc(N3CCN(C(=O)CCBr)CC3)c(F)cc2c1=O` [Compound 9, 7-[4-(3-Bromopropionyl)-piperazin-1-yl]-1-cyclopropyl-6-fluoro-4-oxo-1,4-dihydro-quinoline-3-carboxylic Acid], the “MIC M. tuberculosis Spec 210 (multidrug-resistant)” value was 1 µg/mL (≈ 2.14 µM) and the MIC lay in the range of 1 to 2 µg/mL (≈ 2.14 to 4.29 µM).
For the compound `O=C(O)c1cn(C2CC2)c2cc(N3CCN(C(=O)CCCBr)CC3)c(F)cc2c1=O` [Compound 10, 7-[4-(4-Bromobutyryl)-piperazin-1-yl]-1-cyclopropyl-6-fluoro-4-oxo-1,4-dihydro-quinoline-3-carboxylic Acid], the MIC was at most 0.25 µg/mL.
Turning to `O=C(O)c1cn(C2CC2)c2cc(N3CCN(C(=O)CCCCBr)CC3)c(F)cc2c1=O` [Compound 11, 7-[4-(5-Bromopentanoyl)-piperazin-1-yl]-1-cyclopropyl-6-fluoro-4-oxo-1,4-dihydro-quinoline-3-carboxylic Acid], the MIC is at most 0.25 µg/mL.
The same measure, in the same setting: under `O=C(O)c1cn(C2CC2)c2cc(N3CCN(C(=O)CCCCCBr)CC3)c(F)cc2c1=O` [Compound 12, 7-[4-(6-Bromohexanoyl)-piperazin-1-yl]-1-cyclopropyl-6-fluoro-4-oxo-1,4-dihydro-quinoline-3-carboxylic Acid] stands at most 0.25 µg/mL.
On to `O=C(O)c1cn(C2CC2)c2cc(N3CCN(C(=O)CCCCCCCCCCBr)CC3)c(F)cc2c1=O` [Compound 13, 7-[4-(11-Bromoundekanoyl)-piperazin-1-yl]-1-cyclopropyl-6-fluoro-4-oxo-1,4-dihydro-quinoline-3-carboxylic Acid], for which the “MIC M. tuberculosis Spec 210 (multidrug-resistant)” value turned out to be 1 µg/mL (≈ 1.73 µM) and the MIC lay in the range of 1 to 2 µg/mL (≈ 1.73 to 3.46 µM).
For the compound `O=C(O)c1cn(C2CC2)c2cc(N3CCN(C(=O)CC(F)(F)F)CC3)c(F)cc2c1=O` [Compound 14, 7-[4-(3,3,3-Trifluoropropionyl)-piperazin-1-yl]-1-cyclopropyl-6-fluoro-4-oxo-1,4-dihydro-quinoline-3-carboxylic Acid], the MIC came out at 32 µg/mL (≈ 72.5 µM).
The same measure, in the same setting: the value for `O=C(O)c1cn(C2CC2)c2cc(N3CCN(C(=O)CCC(F)(F)F)CC3)c(F)cc2c1=O` [Compound 15, 7-[4-(4,4,4-Trifluorobutyryl)-piperazin-1-yl]-1-cyclopropyl-6-fluoro-4-oxo-1,4-dihydro-quinoline-3-carboxylic Acid] was 32 µg/mL (≈ 70.3 µM).
On to `O=C(O)c1cn(C2CC2)c2cc(N3CCN(C(=O)CCCC(F)(F)F)CC3)c(F)cc2c1=O` [Compound 16, 7-[4-(5,5,5-Trifluoropentanoyl)-piperazin-1-yl]-1-cyclopropyl-6-fluoro-4-oxo-1,4-dihydro-quinoline-3-carboxylic Acid], for which the MIC turned out to be 32 µg/mL (≈ 68.2 µM).
For `O=C(O)c1cn(C2CC2)c2cc(N3CCN(CC(=O)N4CCN(c5cc6c(cc5F)c(=O)c(C(=O)O)cn6C5CC5)CC4)CC3)c(F)cc2c1=O` [Compound 17, CP–Acetyl–CP Dimer], the MIC is 16 µg/mL (≈ 22.8 µM).
For the compound `O=C(O)c1cn(C2CC2)c2cc(N3CCN(CCCC(=O)N4CCN(c5cc6c(cc5F)c(=O)c(C(=O)O)cn6C5CC5)CC4)CC3)c(F)cc2c1=O` [Compound 18, CP–Butyryl–CP Dimer], the MIC was 4 µg/mL (≈ 5.47 µM).
Take `O=C(O)c1cn(C2CC2)c2cc(N3CCN(CCCCC(=O)N4CCN(c5cc6c(cc5F)c(=O)c(C(=O)O)cn6C5CC5)CC4)CC3)c(F)cc2c1=O` [Compound 19, CP–Pentanoyl–CP Dimer]: the “MIC M. tuberculosis Spec 210 (multidrug-resistant)” value worked out at 1 µg/mL (≈ 1.34 µM) and the MIC lay in the range of 1 to 2 µg/mL (≈ 1.34 to 2.69 µM).
`O=C(O)c1cn(C2CC2)c2cc(N3CCN(CCCCCC(=O)N4CCN(c5cc6c(cc5F)c(=O)c(C(=O)O)cn6C5CC5)CC4)CC3)c(F)cc2c1=O` [Compound 20, CP–Hexanoyl–CP Dimer]: the MIC amounted to 16 µg/mL (≈ 21.1 µM).
As for `O=C(O)c1cn(C2CC2)c2cc(N3CCN(CCCCCCCCCCC(=O)N4CCN(c5cc6c(cc5F)c(=O)c(C(=O)O)cn6C5CC5)CC4)CC3)c(F)cc2c1=O` [Compound 21, CP–Undecanoyl–CP Dimer], the “MIC M. tuberculosis Spec 210 (multidrug-resistant)” value is 1 µg/mL (≈ 1.21 µM) and the MIC was in the range of 1 to 2 µg/mL (≈ 1.21 to 2.41 µM).
Turning to `CC[C@@H](CO)NCCN[C@@H](CC)CO` [ethambutol(EMB), ethambutol, reference compound], the MIC amounted to 32 µg/mL (≈ 157 µM).
Turning to `NNC(=O)c1ccncc1` [isoniazid (INH), isoniazid, reference compound], the MIC worked out at 16 µg/mL (≈ 117 µM).
On the same count and under the same terms, the value for `CO[C@H]1/C=C/O[C@@]2(C)Oc3c(C)c(O)c4c(O)c(c(/C=N/N5CCN(C)CC5)c(O)c4c3C2=O)NC(=O)/C(C)=C\C=C\[C@H](C)[C@H](O)[C@@H](C)[C@@H](O)[C@@H](C)[C@H](OC(C)=O)[C@@H]1C` [rifampicin (RMP), rifampicin, reference compound] was 32 µg/mL (≈ 38.9 µM); that for `[H]/N=C(/N)N[C@H]1[C@H](O)[C@@H](O)[C@H](O[C@@H]2O[C@@H](C)[C@](O)(C=O)[C@H]2O[C@@H]2O[C@@H](CO)[C@H](O)[C@@H](O)[C@@H]2NC)[C@@H](N/C(N)=N\[H])[C@@H]1O` [streptomycin (SM), streptomycin, reference compound] was 16 µg/mL (≈ 27.5 µM).
